Results on one molecule are retold here after patent US7160880B1, “Short-acting benzodiazepines” (CeNeS Limited, priority 1999, dated 2007).

The subject of test [1] is male Wistar rats. The test can be described thus: Loss of the righting reflex (LRR) in rats. The test is classed as in vivo, rat. The conditions noted are these: i.v. via tail vein, dose in the range of 10–100 mg/kg. On the procedure:
The intrinsic efficacy of a compound was assessed by its ability to cause loss of the righting reflex (LRR) in rats, an effect associated with benzodiazepine full agonism.
Method: Subjects for these studies were male Wistar rats, weighing approximately 250–350 grams. To assess loss of righting reflex (LRR), animals were placed in plastic restrainers and test compounds were administered i.v. via the tail vain. Subjects were immediately removed from the restrainer and the time to onset of loss of righting reflex was recorded. LRR was defined as the loss of an animal's ability to right itself when placed in a supine position. […] Compounds producing LRR were evaluated by three measures: 1) Time to onset of LRR (as described above) 2) Time to recover from LRR. An animal met this criteria when able to right itself three consecutive times after losing its righting reflex 3) Total recovery time. Total recovery was measured by the animal's ability to walk without ataxia as well as its ability to pull itself up three consecutive times when suspended from a horizontal wire. […] The therapeutically useful dosage range for administration to mammals is 0.01 to 5.0 mg/kg of body weight.

Test [2] deals with benzodiazepine receptor (benzodiazepine site on the GABAA receptor complex). Nature of the test: Benzodiazepine radioligand (3H-flunitrazepam) binding assay. The conditions noted are these: read-out: Benzodiazepine receptor binding Ki; 3H-flunitrazepam, brain membrane homogenates, 90 minutes at 4° C.; tissue species of the tabulated values not stated.

As a reminder, the Ki is the dissociation constant of the complex between target and ligand, obtained from inhibition or displacement.

As to `O=C(CC[C@@H]1N=C(c2ccccn2)c2cc(Cl)ccc2NC1=O)OCc1ccccc1` [Example 1-9], the “loss of righting reflex (LRR)” value in test [1] was “producing loss-of-righting”. The Ki in test [2] was 101 to 1000 nM.
